Measured values taken from article PMC5286421, “Interactions of retinoids with the ABC transporters P-glycoprotein and Breast Cancer Resistance Protein” (Scientific Reports, 2017).
Where two headings read alike, the source gives them in different places.

What was measured:
[1] = molecular target: T1, ABCG2 (Homo sapiens, UniProt Q9UNQ0); assay: Mitoxantrone accumulation test (ABCG2 transport activity) in MDCK ABCG2 cells; settings: 20 min pre-treatment 37 °C, 5 μM mitoxantrone 40 min
T1 sequence (Q9UNQ0 1-655): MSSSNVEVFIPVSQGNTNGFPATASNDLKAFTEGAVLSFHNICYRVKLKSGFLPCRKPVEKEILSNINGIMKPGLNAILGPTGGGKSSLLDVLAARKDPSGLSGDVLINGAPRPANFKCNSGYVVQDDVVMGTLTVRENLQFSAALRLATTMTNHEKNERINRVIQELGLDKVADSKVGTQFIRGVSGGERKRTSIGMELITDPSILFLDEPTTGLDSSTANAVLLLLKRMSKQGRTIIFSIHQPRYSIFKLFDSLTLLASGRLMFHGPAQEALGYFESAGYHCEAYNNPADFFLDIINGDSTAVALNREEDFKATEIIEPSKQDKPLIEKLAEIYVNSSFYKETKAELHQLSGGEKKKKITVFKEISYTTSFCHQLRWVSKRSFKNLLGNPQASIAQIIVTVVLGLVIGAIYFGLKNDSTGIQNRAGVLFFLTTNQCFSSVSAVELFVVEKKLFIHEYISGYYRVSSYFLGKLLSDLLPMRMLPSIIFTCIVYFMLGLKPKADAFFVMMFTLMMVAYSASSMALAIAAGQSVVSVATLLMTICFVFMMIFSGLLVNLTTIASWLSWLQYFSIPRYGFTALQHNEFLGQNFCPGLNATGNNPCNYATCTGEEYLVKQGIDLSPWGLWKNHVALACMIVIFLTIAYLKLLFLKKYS
Experimental: (§1) Calcein-AM was applied to measure the transport activity of Pgp[51], while ABCG2 mediated transport was measured in mitoxantrone accumulation tests[18]. Cells were harvested and washed three times in PBS containing 7 mM glucose (gl-PBS). […] Dead cells were excluded from the analysis on the basis of propidium iodide (PI) staining.
(§2) Flow cytometric analysis was carried out on a Becton Dickinson FACSAria III Cell Sorter (Becton Dickinson, Mountain View, CA, USA). Calcein was excited by the 488 nm line of a solid state laser and the emitted light was detected using a 502 nm dichroic mirror and a 530/30 nm band-pass filter. […] AlexaFluor647 and mitoxantrone signals were detected with a 633 nm excitation laser and a 660/20 nm band-pass filter.

[2] = system: NIH 3T3 / NIH 3T3 MDR1 and MDCK / MDCK ABCG2 cells; assay: DPH steady-state fluorescence anisotropy (membrane fluidity); settings: retinoids 100 μM; for Effect on DPH fluorescence anisotropy: cyclosporin 10 μM, Ko143 2 μM, 10 min 37 °C, all tested cell lines; for Effect on DPH anisotropy in transporter expressing compared to non-expressing cells: Pgp+ vs Pgp− NIH 3T3, ABCG2 expressing vs non-expressing MDCK
[3] = molecular target: T1, ABCG2; assay: Vanadate-sensitive ATPase activity of ABCG2 in Sf9 membrane preparations; format: biochemical; settings: for IC50 values, ABCG2 stimulated (quercetin-stimulated) ATPase activity / IC50 values, ABCG2 basal ATPase activity / IC50: cholesterol-loaded Sf9 membranes, mean ± SEM, n=3; for Change of apparent KM of quercetin-stimulated ABCG2 ATPase activity / Change of vmax of quercetin-stimulated ABCG2 ATPase activity: Figs 5 and 6; for Type of inhibition of the quercetin-stimulated ATPase activity of ABCG2: modified Michaelis-Menten fit at different quercetin concentrations
Experimental: For ATPase activity measurements we used membrane samples derived from Sf9 (Spodoptera frugiperda) insect ovarian cells expressing human Pgp or ABCG2. cDNAs of the transporters were cloned into recombinant baculovirus transfer vectors, the Sf9 insect ovarian cells were cultured, and infected with the baculoviruses as described in ref. [52]. Sf9 cells overexpressing human Pgp and ABCG2 were harvested and cell membranes were isolated. The protein concentration of the membrane samples were determined by the Lowry method. The ABCG2 expressing Sf9 membrane samples were loaded with cholesterol by cholesterol-methyl-beta-cyclodextrine complex in order to obtain high specific ATPase activity of the transporter. Membrane samples were stored at −80 °C. The transporter expression of the membrane samples (5 μg membrane protein/slot) was routinely checked by immunoblot using the G-1 mAb (for Pgp) or BXP-21 mAb (for ABCG2) and a goat anti-mouse HRP-conjugated IgG secondary antibody. Both primary and secondary antibodies were from Santa Cruz Biotechnology Inc. (CA, USA) and applied at 1:5,000 dilution.
The vanadate-sensitive ATPase activity of Pgp and ABCG2 was determined by a colorimetric assay described in refs [32],[55]. Specific ATPase activity of the transporters was calculated from the amount of released inorganic phosphate. […]. The absorbance of the samples was measured at 700 nm using a BioTek Synergy HT plate reader (BioTek Instruments, Winooski, USA).
The half-inhibitory doses (IC50) of retinoids were determined by fitting the dose-response relationships with a four parameter sigmoidal curve, where Amax and Amin are the ATPase activities measured at zero and at infinitely high inhibitor concentrations, respectively, n is the Hill coefficient and x is the concentration of the inhibitor:
Upon studying the kinetics of inhibition of the substrate-stimulated ATPase activity by retinoids data points were fitted with a modified form of the Michaelis-Menten equation[56] which includes the Hill coefficient, n: […]
v0 is the basal ATPase activity measured in the absence of the stimulatory substrate, while vmax is the maximal extent of ATPase stimulation and KM is the Michaelis constant (i.e. the substrate concentration at which the reaction rate is half of vmax).

[4] = molecular target: T2, Pgp (Homo sapiens, UniProt P08183); settings: for IC50 values, Pgp stimulated (verapamil-stimulated) ATPase activity: 40 μM verapamil; for IC50 values, Pgp stimulated (verapamil-stimulated) ATPase activity / IC50 values, Pgp basal ATPase activity: Sf9 membranes, mean ± SEM, n=3; for IC50 values, Pgp basal ATPase activity: 10 min pre-incubation 37 °C, 3 mM ATP/Mg2+ 25 min; for Change of apparent KM of verapamil-stimulated Pgp ATPase activity / Change of vmax of verapamil-stimulated Pgp ATPase activity: Figs 5 and 6; for Type of inhibition of the verapamil-stimulated ATPase activity of Pgp: modified Michaelis-Menten fit at different verapamil concentrations
T2 sequence (P08183 whole entry): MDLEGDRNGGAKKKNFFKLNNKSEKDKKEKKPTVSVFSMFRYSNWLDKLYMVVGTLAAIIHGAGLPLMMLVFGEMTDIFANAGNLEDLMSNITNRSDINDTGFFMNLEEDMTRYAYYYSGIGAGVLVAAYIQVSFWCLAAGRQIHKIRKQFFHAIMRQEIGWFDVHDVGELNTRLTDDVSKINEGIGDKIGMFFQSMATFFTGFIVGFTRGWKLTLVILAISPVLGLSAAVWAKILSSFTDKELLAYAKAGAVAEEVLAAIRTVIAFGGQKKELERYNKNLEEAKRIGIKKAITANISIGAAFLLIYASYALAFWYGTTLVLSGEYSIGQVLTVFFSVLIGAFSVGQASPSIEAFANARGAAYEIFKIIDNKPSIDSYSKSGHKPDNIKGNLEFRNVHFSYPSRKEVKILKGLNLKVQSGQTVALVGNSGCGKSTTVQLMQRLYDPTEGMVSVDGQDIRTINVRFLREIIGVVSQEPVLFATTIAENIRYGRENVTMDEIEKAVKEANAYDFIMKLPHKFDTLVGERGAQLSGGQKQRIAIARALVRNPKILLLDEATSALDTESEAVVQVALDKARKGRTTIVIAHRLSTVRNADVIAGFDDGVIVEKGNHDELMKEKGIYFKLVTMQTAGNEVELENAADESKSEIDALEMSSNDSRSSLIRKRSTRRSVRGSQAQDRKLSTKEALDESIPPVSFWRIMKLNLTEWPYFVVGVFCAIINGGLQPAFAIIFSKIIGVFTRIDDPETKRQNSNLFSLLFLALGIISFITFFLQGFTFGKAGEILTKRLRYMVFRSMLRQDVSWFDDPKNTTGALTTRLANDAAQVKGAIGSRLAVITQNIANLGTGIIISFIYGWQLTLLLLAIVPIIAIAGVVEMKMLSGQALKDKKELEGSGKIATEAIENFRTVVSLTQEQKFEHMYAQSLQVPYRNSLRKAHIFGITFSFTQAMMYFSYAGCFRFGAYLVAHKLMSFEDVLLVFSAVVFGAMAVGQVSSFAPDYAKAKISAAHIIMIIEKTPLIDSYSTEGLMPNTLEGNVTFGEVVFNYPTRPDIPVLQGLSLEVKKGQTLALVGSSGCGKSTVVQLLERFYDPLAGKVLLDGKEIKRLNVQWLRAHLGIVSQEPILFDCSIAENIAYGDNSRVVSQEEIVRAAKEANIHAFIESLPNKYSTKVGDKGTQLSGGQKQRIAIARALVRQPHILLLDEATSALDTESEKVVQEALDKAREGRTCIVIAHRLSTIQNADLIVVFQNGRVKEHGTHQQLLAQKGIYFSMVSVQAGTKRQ
Experimental: (§3) For ATPase activity measurements we used membrane samples derived from Sf9 (Spodoptera frugiperda) insect ovarian cells expressing human Pgp or ABCG2. cDNAs of the transporters were cloned into recombinant baculovirus transfer vectors, the Sf9 insect ovarian cells were cultured, and infected with the baculoviruses as described in ref. [52]. Sf9 cells overexpressing human Pgp and ABCG2 were harvested and cell membranes were isolated. The protein concentration of the membrane samples were determined by the Lowry method[53]. The ABCG2 expressing Sf9 membrane samples were loaded with cholesterol by cholesterol-methyl-beta-cyclodextrine complex in order to obtain high specific ATPase activity of the transporter[54]. Membrane samples were stored at −80 °C. The transporter expression of the membrane samples (5 μg membrane protein/slot) was routinely checked by immunoblot using the G-1 mAb (for Pgp) or BXP-21 mAb (for ABCG2) and a goat anti-mouse HRP-conjugated IgG secondary antibody. Both primary and secondary antibodies were from Santa Cruz Biotechnology Inc. (CA, USA) and applied at 1:5,000 dilution.
(§4) The vanadate-sensitive ATPase activity of Pgp and ABCG2 was determined by a colorimetric assay described in refs [32],[55]. Specific ATPase activity of the transporters was calculated from the amount of released inorganic phosphate. […] The absorbance of the samples was measured at 700 nm using a BioTek Synergy HT plate reader (BioTek Instruments, Winooski, USA).

[5] = molecular target: T2, Pgp; assay: Calcein accumulation test (Pgp transport activity) in NIH 3T3 MDR1 cells; settings: 20 min pre-treatment 37 °C, 500 nM calcein-AM 20 min
Experimental: as §1, §2

[6] = molecular target: T2, Pgp; assay: biochemical; settings: IC50 values, Sf9 membranes, mean ± SEM, n=3
Experimental: as §3, §4

[7] = system: Pgp- and ABCG2-negative NIH 3T3 and MDCK cells; assay: Calcein and mitoxantrone accumulation in transporter negative cells; format: cell-based, mouse / canine; settings: NIH 3T3 (calcein) and MDCK (mitoxantrone), Supplementary Fig. S1, 50 µM
Experimental: Supplementary Fig. S1: Effect of retinoid derivatives on the calcein (a) and
mitoxantrone (c) accumulation and viability (b, d) of Pgp- and ABCG2-negative NIH
3T3 and MDCK cells. Cells were pre-treated with retinoids added at 50 µM concentration
Cell viability was determined on the basis of propidium iodide exclusion.
(1 picture or pasted object on this page, not shown here)

[8] = cited from earlier work; for Plasma concentrations resulting from chemotherapy use: treatment of neuroblastoma or squamous cell carcinoma, ref [24][25][26]
[9] = cited from earlier work
[10] = system: NIH 3T3 / NIH 3T3 MDR1 and MDCK / MDCK ABCG2 cells; assay: TMA-DPH steady-state fluorescence anisotropy (membrane fluidity); settings: 100 μM; NIH 3T3 and NIH 3T3 MDR1 cells
[11] = Pgp basal ATPase activity, 10 min pre-incubation 37 °C, 3 mM ATP/Mg2+ 25 min
[12] = Pgp stimulated (verapamil-stimulated) ATPase activity, 40 μM verapamil
[13] = 10 μM quercetin, read-out: IC50 values, ABCG2 stimulated (quercetin-stimulated) ATPase activity
[14] = read-out: IC50 values, ABCG2 basal ATPase activity

Structure (SMILES)	Effect on mitoxantrone accumulation of ABCG2 expressing cells (ABCG2 transport activity) [1]	Effect on DPH fluorescence anisotropy [2]	IC50 values, ABCG2 stimulated (quercetin-stimulated) ATPase activity ([3]; 10 μM quercetin)	IC50 values, ABCG2 basal ATPase activity [3]	IC50 values, Pgp stimulated (verapamil-stimulated) ATPase activity [4]	IC50 values, Pgp basal ATPase activity [4]	Effect on calcein accumulation of Pgp expressing cells (Pgp transport activity) [5]	other results
CC1=C(/C=C/C(C)=C\C=C\C(C)=C\C(=O)O)C(C)(C)CCC1 [9-cis-retinoic acid]	none of them had any effect	did not have any effect	No effect	No effect	No effect	No effect	none of them had any effect	
CC1=C(/C=C/C(C)=C/C=C/C(C)=C\C(=O)O)C(C)(C)CCC1 [13-cis-retinoic acid]	increased the cellular accumulation of the fluorescent transporter substrates in a concentration dependent manner	increased the DPH fluorescence anisotropy values significantly					increased the cellular accumulation of the fluorescent transporter substrates in a concentration dependent manner	IC50 [6, 11]: 60.5 ± 11.4 µM; IC50 [6, 12]: 26.8 ± 2 µM; Effect on DPH anisotropy in transporter expressing compared to non-expressing cells [2]: similarly; IC50 [3, 13]: 76.5 ± 2.3 µM; Change of apparent KM of quercetin-stimulated ABCG2 ATPase activity [3]: apparent increase of the KMvalues; Change of vmax of quercetin-stimulated ABCG2 ATPase activity [3]: decreased the vmax value; IC50 [3, 14]: 70.6 ± 9 µM; Type of inhibition of the quercetin-stimulated ATPase activity of ABCG2 [3]: mixed-type transporter inhibition; Effect on substrate accumulation of transporter negative cells [7]: did not have any effect; Plasma concentrations resulting from chemotherapy use [8]: 10 to 20 µM; Change of apparent KM of verapamil-stimulated Pgp ATPase activity [4]: did not induce statistically significant KM increase; Change of vmax of verapamil-stimulated Pgp ATPase activity [4]: decreased the vmax; Type of inhibition of the verapamil-stimulated ATPase activity of Pgp [4]: inhibits Pgp only non-competitively
CC1=C(/C=C/C(C)=C/C=C/C(C)=C/C(=O)O)C(C)(C)CCC1=O [All-trans-4-oxo-retinoic acid, all-trans-4-oxo-retinoic acid]			No effect	No effect	Weak inhibition	No effect		
CC1=C(/C=C/C(C)=C/C=C/C(C)=C/C(=O)O)C(C)(C)CCC1 [All-trans-retinoic-acid, all-trans retinoic acid]	none of them had any effect	did not have any effect	No effect	No effect	No effect	No effect	none of them had any effect	Plasma concentrations resulting from chemotherapy use [8]: 10 to 20 µM
CC1=C(/C=C/C(C)=C/C=C/C(C)=C/CO)C(C)(C)CCC1 [Retinol]	increased the cellular accumulation of the fluorescent transporter substrates in a concentration dependent manner	increased the DPH fluorescence anisotropy values significantly					increased the cellular accumulation of the fluorescent transporter substrates in a concentration dependent manner	IC50 [6, 11]: 23.5 ± 4 µM; IC50 [6, 12]: 27.9 ± 0.7 µM; Effect on DPH anisotropy in transporter expressing compared to non-expressing cells [2]: similarly; LogP (octanol-water partition coefficient, LogPow) ([9]; ref PubChem Compound Database (CID)): 5.7; IC50 [3, 13]: 95.2 ± 10.6 µM; Change of apparent KM of quercetin-stimulated ABCG2 ATPase activity [3]: increased the KM; Change of vmax of quercetin-stimulated ABCG2 ATPase activity [3]: decreased the vmax; IC50 [3, 14]: 31.6 ± 4.2 µM; Type of inhibition of the quercetin-stimulated ATPase activity of ABCG2 [3]: mixed-type transporter inhibition; Effect on substrate accumulation of transporter negative cells [7]: did not have any effect; Concentration present in the plasma (physiological) ([8]; ref [20]): 1–2 micromolar; Change of apparent KM of verapamil-stimulated Pgp ATPase activity [4]: increased the KM; Change of vmax of verapamil-stimulated Pgp ATPase activity [4]: decreased the vmax; Type of inhibition of the verapamil-stimulated ATPase activity of Pgp [4]: mixed-type transporter inhibition
CCCCCCCCCCCCCCCC(=O)OC/C=C(C)/C=C/C=C(C)/C=C/C1=C(C)CCCC1(C)C [Retiny-palmitate, Retinyl-palmitate]	none of them had any effect		No effect	No effect	No effect	No effect	none of them had any effect	Effect on TMA-DPH fluorescence anisotropy, NIH 3T3 cell pair [10]: decreased the TMA-DPH anisotropies significantly
CCC(=O)OC/C=C(C)/C=C/C=C(C)/C=C/C1=C(C)CCCC1(C)C [Retinyl-propionate]	none of them had any effect		No effect	No effect	No effect	No effect	none of them had any effect	
O=c1c(O)c(-c2ccc(O)c(O)c2)oc2cc(O)cc(O)c12 [quercetin]								LogP (octanol-water partition coefficient, LogPow) ([9]; ref 2 (Rothwell et al., 2005)): 1.8; Stimulated ATPase activity of ABCG2 ([3]; 10 μM quercetin): 60–70 nmol Pi/ mg protein/min; Stimulation of ABCG2 ATPase activity ([3]; 10 μM quercetin, maximum stimulation): ~2 fold
